Values of other authors, collected in US20240189233A1, “POWDERY PREPARATION AND METHOD FOR MANUFACTURING SAME” (ICHIMARU PHARCOS CO., LTD., priority 2021, published 2024).

Tested on: human breast cancer cells
Conditions: Cheng W L et al. (2011)

## C=C[C@H](O)C#CC#C[C@H](O)/C=C\CC/C=C\C [araliadiol]
  growth inhibitory activity: growth inhibitory activity
